Data as given in the NIST ThermoML archive (doi:10.1016/j.jct.2017.05.001).
Numbers after ± are expanded uncertainties.

Test: wn = mass fraction of the nth substance listed
Settings: Liquid; for viscosity: Falling or rolling sphere viscometry; for mass density: Vibrating tube method

CN(C)CCO [2-(N,N-dimethylamino)ethanol] + O
Settings | mass density, w1 = 0.1005 [kg/m3] | mass density, w1 = 0.202 [kg/m3] | mass density, w1 = 0.3005 [kg/m3] | mass density, w1 = 0.3995 [kg/m3] | viscosity, w1 = 0.1005 [mPa·s] | viscosity, w1 = 0.202 [mPa·s] | viscosity, w1 = 0.3005 [mPa·s] | viscosity, w1 = 0.3995 [mPa·s]
373.15 K, 30000 kPa | 964.4 ± 0.7 | 956.3 ± 0.7 | 947.9 ± 0.7 | 938.5 ± 0.7 | 0.3711 ± 0.012 | 0.4702 ± 0.015 | 0.6099 ± 0.02 | 0.7742 ± 0.025
373.15 K, 40000 kPa | 968.7 ± 0.7 | 960.9 ± 0.7 | 952.4 ± 0.7 | 943.3 ± 0.7 | 0.3746 ± 0.012 | 0.4771 ± 0.016 | 0.6239 ± 0.021 | 0.7998 ± 0.026
373.15 K, 50000 kPa | 972.8 ± 0.7 | 964.9 ± 0.7 | 956.6 ± 0.7 | 947.6 ± 0.7 | – | – | – | –
373.15 K, 60000 kPa | 976.8 ± 0.7 | 968.9 ± 0.7 | 960.9 ± 0.7 | 952.1 ± 0.7 | 0.3833 ± 0.013 | 0.4923 ± 0.016 | 0.6493 ± 0.021 | 0.8409 ± 0.028
373.15 K, 70000 kPa | 980.9 ± 0.7 | 973 ± 0.7 | 965 ± 0.7 | 956.2 ± 0.7 | – | – | – | –
373.15 K, 80000 kPa | 984.7 ± 0.7 | 976.9 ± 0.7 | 969.1 ± 0.7 | 960.4 ± 0.7 | 0.3916 ± 0.013 | 0.5073 ± 0.017 | 0.6735 ± 0.022 | 0.8827 ± 0.029
373.15 K, 90000 kPa | 988.6 ± 0.7 | 980.6 ± 0.7 | 972.8 ± 0.7 | 964.3 ± 0.7 | – | – | – | –
373.15 K, 100000 kPa | 992.1 ± 0.7 | 984.3 ± 0.7 | 976.4 ± 0.7 | 968.1 ± 0.7 | 0.3984 ± 0.013 | 0.5213 ± 0.017 | 0.6978 ± 0.023 | 0.9306 ± 0.031
373.15 K, 110000 kPa | 995.9 ± 0.7 | 988 ± 0.7 | 980.3 ± 0.7 | 971.9 ± 0.7 | – | – | – | –
373.15 K, 120000 kPa | 999.5 ± 0.7 | 991.6 ± 0.7 | 983.8 ± 0.7 | 975.6 ± 0.7 | – | – | – | –
373.15 K, 130000 kPa | 1003 ± 0.7 | 995 ± 0.7 | 987.3 ± 0.7 | 979.1 ± 0.7 | – | – | – | –
373.15 K, 140000 kPa | 1006.3 ± 0.7 | 998.4 ± 0.7 | 990.7 ± 0.7 | 982.6 ± 0.7 | – | – | – | –
393.15 K, 100 kPa | 934.5 ± 0.7 | 925.2 ± 0.7 | 915 ± 0.7 | 903.9 ± 0.7 | – | – | – | –
393.15 K, 500 kPa | 934.9 ± 0.7 | 925.5 ± 0.7 | 915.5 ± 0.7 | 904.3 ± 0.7 | – | – | – | –
393.15 K, 1000 kPa | 935.1 ± 0.7 | 925.7 ± 0.7 | 915.7 ± 0.7 | 904.6 ± 0.7 | – | – | – | –
393.15 K, 2000 kPa | 935.6 ± 0.7 | 926.3 ± 0.7 | 916.3 ± 0.7 | 905.2 ± 0.7 | – | – | – | –
393.15 K, 5000 kPa | 937.1 ± 0.7 | 927.9 ± 0.7 | 917.9 ± 0.7 | 907 ± 0.7 | 0.2917 ± 0.0096 | 0.3533 ± 0.012 | 0.4325 ± 0.014 | 0.5209 ± 0.017
393.15 K, 10000 kPa | – | – | – | – | 0.2952 ± 0.0097 | 0.3557 ± 0.012 | – | –
